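Five compound concentrations were applied to cells in 96-well plates for 48 hours; endpoints were derived by simple linear interpolation of the resulting dose-response curve. GI50: concentration for 50% inhibition of growth.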 Activity calls are given as the source filed them. No stated cut-off is given here; in the data, active = GI50 up to about 1.1 µM and inactive = higher.
How the values were obtained:
Assay in all cases: NCI-60 cell line screen, 48 h
NCI-H23 = test system: NCI-H23
DMS-114 = test system: DMS-114
CAKI-1 = test system: CAKI-1
MOLT-4 = test system: MOLT-4
OVCAR-8 = test system: OVCAR-8
KM12 = test system: KM12
COLO 205 = test system: COLO 205
A549 = test system: A549
M19-MEL = test system: M19-MEL
NCI-H226 = test system: NCI-H226
SNB-19 = test system: SNB-19
HCT-15 = test system: HCT-15
HOP-92 = test system: HOP-92
SF-539 = test system: SF-539
SN12C = test system: SN12C
Malme-3M = test system: Malme-3M
K562 = test system: K562
RPMI-8226 = test system: RPMI-8226
UACC-62 = test system: UACC-62
RXF 393 = test system: RXF 393
DMS-273 = test system: DMS-273
SK-MEL-2 = test system: SK-MEL-2
HT-29 = test system: HT-29
TK-10 = test system: TK-10
KM-20L2 = test system: KM-20L2
U-251 = test system: U-251
SK-MEL-28 = test system: SK-MEL-28
SR = test system: SR
EKVX = test system: EKVX
OVCAR-5 = test system: OVCAR-5
SNB-75 = test system: SNB-75
SK-MEL-5 = test system: SK-MEL-5
SNB-78 = test system: SNB-78
UACC-257 = test system: UACC-257
OVCAR-3 = test system: OVCAR-3
HCC 2998 = test system: HCC 2998
SF-268 = test system: SF-268
SF-295 = test system: SF-295
SK-OV-3 = test system: SK-OV-3
OVCAR-4 = test system: OVCAR-4
HCT-116 = test system: HCT-116
SW-620 = test system: SW-620
UO-31 = test system: UO-31
786-0 = test system: 786-0
LXFL 529 = test system: LXFL 529
IGROV-1 = test system: IGROV-1
NCI-H522 = test system: NCI-H522
HL-60 = test system: HL-60
ACHN = test system: ACHN
M14 = test system: M14
LOX IMVI = test system: LOX IMVI

**Q.** What does the source list for O=C(CCC(=O)N/N=C/c1ccccc1O)N/N=C/c1ccccc1O?
**A.** GI50 (NCI-H23): 94.6 µM (inactive); GI50 (DMS-114): > 100 µM (inactive); GI50 (CAKI-1): > 100 µM (inactive); GI50 (MOLT-4): > 100 µM (inactive); GI50 (OVCAR-8): 92 µM (inactive); GI50 (KM12): > 100 µM (inactive); GI50 (COLO 205): > 100 µM (inactive); GI50 (A549): > 100 µM (inactive); GI50 (M19-MEL): > 100 µM (inactive); GI50 (NCI-H226): > 100 µM (inactive); GI50 (SNB-19): 56.6 µM (inactive); GI50 (HCT-15): 51.4 µM; GI50 (HOP-92): 27.9 µM (inactive); GI50 (SF-539): > 10 µM (inactive); GI50 (SN12C): > 100 µM (inactive); GI50 (Malme-3M): > 100 µM (inactive); GI50 (K562): > 100 µM (inactive); GI50 (RPMI-8226): > 100 µM (inactive); GI50 (UACC-62): 41.8 µM (inactive); GI50 (RXF 393): 16 µM (inactive); GI50 (DMS-273): > 100 µM (inactive); GI50 (SK-MEL-2): 17.5 µM (inactive); GI50 (HT-29): > 100 µM (inactive); GI50 (TK-10): 29.4 µM (inactive); GI50 (KM-20L2): > 100 µM (inactive); GI50 (U-251): 32.7 µM (inactive); GI50 (SK-MEL-28): 41.1 µM (inactive); GI50 (SR): > 100 µM (inactive); GI50 (EKVX): 20.9 µM (inactive); GI50 (OVCAR-5): > 100 µM (inactive); GI50 (SNB-75): 12.9 µM (inactive); GI50 (SK-MEL-5): > 100 µM (inactive); GI50 (SNB-78): 51.3 µM (inactive); GI50 (UACC-257): > 100 µM (inactive); GI50 (OVCAR-3): 42.1 µM (inactive); GI50 (HCC 2998): > 100 µM (inactive); GI50 (SF-268): 18.8 µM (inactive); GI50 (SF-295): 32.5 µM (inactive); GI50 (SK-OV-3): 18.9 µM (inactive); GI50 (OVCAR-4): > 100 µM (inactive); GI50 (HCT-116): 80.7 µM (inactive); GI50 (SW-620): > 100 µM (inactive); GI50 (UO-31): > 100 µM (inactive); GI50 (786-0): > 100 µM (inactive); GI50 (LXFL 529): > 100 µM (inactive); GI50 (IGROV-1): 33.9 µM (inactive); GI50 (NCI-H522): 53.2 µM (inactive)

**Q.** N#CN1CCC2CC(=O)CCC2C1 (stereo unspecified) was tested. Which GI50 (NCI-H23) did it give?
**A.** > 100 µM (inactive)

**Q.** And the GI50 (DMS-114)?
**A.** > 100 µM (inactive)

**Q.** And the GI50 (CAKI-1)?
**A.** > 100 µM (inactive)

**Q.** And the GI50 (MOLT-4)?
**A.** > 100 µM (inactive)

**Q.** And the GI50 (KM12)?
**A.** > 100 µM (inactive)

**Q.** What about the GI50 (A549) of the same compound?
**A.** > 100 µM (inactive)

**Q.** What about the GI50 (NCI-H226) of the same compound?
**A.** > 100 µM (inactive)

**Q.** What about the GI50 (SNB-19) of the same compound?
**A.** > 100 µM (inactive)

**Q.** And the GI50 (HCT-15)?
**A.** > 100 µM

**Q.** What about the GI50 (HOP-92) of the same compound?
**A.** > 100 µM (inactive)

**Q.** And the GI50 (SN12C)?
**A.** > 100 µM (inactive)

**Q.** And the GI50 (Malme-3M)?
**A.** > 100 µM (inactive)

**Q.** And the GI50 (K562)?
**A.** > 100 µM (inactive)

**Q.** What about the GI50 (UACC-62) of the same compound?
**A.** > 100 µM (inactive)

**Q.** And the GI50 (RXF 393)?
**A.** > 100 µM (inactive)

**Q.** What about the GI50 (SK-MEL-2) of the same compound?
**A.** > 100 µM (inactive)

**Q.** What about the GI50 (TK-10) of the same compound?
**A.** > 100 µM (inactive)

**Q.** What about the GI50 (KM-20L2) of the same compound?
**A.** > 100 µM (inactive)

**Q.** What about the GI50 (U-251) of the same compound?
**A.** > 100 µM (inactive)

**Q.** What about the GI50 (SK-MEL-28) of the same compound?
**A.** > 100 µM (inactive)

**Q.** And the GI50 (SR)?
**A.** > 100 µM (inactive)

**Q.** What about the GI50 (OVCAR-5) of the same compound?
**A.** > 100 µM (inactive)

**Q.** And the GI50 (SNB-75)?
**A.** > 100 µM (inactive)

**Q.** And the GI50 (SK-MEL-5)?
**A.** > 10 µM (inactive)

**Q.** And the GI50 (SNB-78)?
**A.** > 100 µM (inactive)

**Q.** And the GI50 (OVCAR-3)?
**A.** > 100 µM (inactive)

**Q.** And the GI50 (HCC 2998)?
**A.** > 100 µM (inactive)

**Q.** And the GI50 (SF-268)?
**A.** > 100 µM (inactive)

**Q.** What about the GI50 (HL-60) of the same compound?
**A.** > 100 µM (inactive)

**Q.** What about the GI50 (ACHN) of the same compound?
**A.** > 100 µM (inactive)

**Q.** What about the GI50 (SK-OV-3) of the same compound?
**A.** > 100 µM (inactive)

**Q.** And the GI50 (OVCAR-4)?
**A.** > 100 µM (inactive)

**Q.** What about the GI50 (HCT-116) of the same compound?
**A.** > 100 µM (inactive)

**Q.** And the GI50 (SW-620)?
**A.** > 100 µM (inactive)

**Q.** And the GI50 (UO-31)?
**A.** > 100 µM (inactive)

**Q.** What about the GI50 (M14) of the same compound?
**A.** > 100 µM (inactive)

**Q.** What about the GI50 (786-0) of the same compound?
**A.** > 100 µM (inactive)

**Q.** And the GI50 (IGROV-1)?
**A.** > 100 µM (inactive)

**Q.** And the GI50 (LOX IMVI)?
**A.** > 100 µM (inactive)

Source: ChEMBL document CHEMBL1201862, “PubChem BioAssay data set” (2004)
